Reference: ChEMBL document CHEMBL4507278 (2021)

Tests used:
[1] = test system: Tyrosine-protein kinase ABL1 (Homo sapiens), P00519 [M351T]; settings: Compound concentration 1000.0 nM
[2] = molecular target: Mitogen-activated protein kinase kinase kinase 3 (Homo sapiens) (UniProt Q99759); settings: Compound concentration 1000.0 nM
[3] = molecular target: Myosin light chain kinase (Homo sapiens) (UniProt Q32MK0); settings: Compound concentration 1000.0 nM
[4] = molecular target: 5-hydroxytryptamine receptor 6 (Homo sapiens) (UniProt P50406); settings: Compound concentration 10.0 uM
Sequence of 5-hydroxytryptamine receptor 6 (Homo sapiens) (P50406 whole entry): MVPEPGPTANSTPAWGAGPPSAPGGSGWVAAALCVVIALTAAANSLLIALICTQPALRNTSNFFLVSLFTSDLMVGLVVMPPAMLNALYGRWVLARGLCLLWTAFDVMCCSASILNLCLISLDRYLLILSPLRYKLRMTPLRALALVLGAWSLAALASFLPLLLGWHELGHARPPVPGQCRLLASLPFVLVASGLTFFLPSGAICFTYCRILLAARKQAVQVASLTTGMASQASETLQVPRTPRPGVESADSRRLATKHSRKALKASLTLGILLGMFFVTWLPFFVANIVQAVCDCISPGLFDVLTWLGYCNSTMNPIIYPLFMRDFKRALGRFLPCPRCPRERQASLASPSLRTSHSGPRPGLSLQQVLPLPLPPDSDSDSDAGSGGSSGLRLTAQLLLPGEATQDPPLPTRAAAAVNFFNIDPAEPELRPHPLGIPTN

[5] = molecular target: T1, 5-hydroxytryptamine receptor 1A (Homo sapiens) (UniProt P08908); test: 5HT1A/HU Eurofins-Panlabs selectivity data (BI); settings: Compound concentration 10.0 uM
T1 sequence (whole entry): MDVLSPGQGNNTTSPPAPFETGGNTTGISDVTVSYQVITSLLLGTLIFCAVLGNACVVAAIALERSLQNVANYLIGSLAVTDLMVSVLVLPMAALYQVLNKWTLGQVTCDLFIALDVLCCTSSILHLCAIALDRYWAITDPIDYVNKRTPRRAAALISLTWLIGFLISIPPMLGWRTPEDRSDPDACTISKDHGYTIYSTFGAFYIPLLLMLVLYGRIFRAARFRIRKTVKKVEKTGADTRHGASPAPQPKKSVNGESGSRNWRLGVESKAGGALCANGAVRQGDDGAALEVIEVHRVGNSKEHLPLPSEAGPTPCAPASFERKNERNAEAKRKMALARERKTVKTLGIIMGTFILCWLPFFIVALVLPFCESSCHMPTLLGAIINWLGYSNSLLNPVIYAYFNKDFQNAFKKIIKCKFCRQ

[6] = molecular target: T2, 5-hydroxytryptamine receptor 3A (Homo sapiens) (UniProt P46098); test: 5HT3/HU Eurofins-Panlabs selectivity data (BI); settings: Compound concentration 10.0 uM
T2 sequence (whole entry): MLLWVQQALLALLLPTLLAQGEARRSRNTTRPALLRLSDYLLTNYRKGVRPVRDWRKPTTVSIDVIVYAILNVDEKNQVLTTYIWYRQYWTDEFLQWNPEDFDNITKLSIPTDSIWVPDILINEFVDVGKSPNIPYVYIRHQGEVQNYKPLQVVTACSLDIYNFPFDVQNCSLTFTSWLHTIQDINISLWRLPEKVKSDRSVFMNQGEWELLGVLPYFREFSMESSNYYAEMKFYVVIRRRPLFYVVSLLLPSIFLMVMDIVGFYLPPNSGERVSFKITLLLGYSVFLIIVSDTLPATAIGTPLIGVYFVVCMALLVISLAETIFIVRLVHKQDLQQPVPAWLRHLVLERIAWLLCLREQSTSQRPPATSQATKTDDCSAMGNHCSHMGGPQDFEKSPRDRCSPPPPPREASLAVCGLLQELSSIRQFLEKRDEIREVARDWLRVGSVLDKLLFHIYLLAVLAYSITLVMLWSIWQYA

[7] = molecular target: Beta-1 adrenergic receptor (Homo sapiens, UniProt P08588); test: BETA1/HU Eurofins-Panlabs selectivity data (BI); settings: Compound concentration 10.0 uM
[8] = molecular target: Voltage-dependent N-type calcium channel subunit alpha-1B (Rattus norvegicus) (UniProt Q02294); test: CA+/N/RA Eurofins-Panlabs selectivity data (BI); settings: Compound concentration 10.0 uM
[9] = molecular target: Cannabinoid receptor 1 (Homo sapiens) (UniProt P21554); test: CB1 Eurofins-Panlabs selectivity data (BI); settings: Compound concentration 10.0 uM
Sequence of Cannabinoid receptor 1 (Homo sapiens) (P21554 whole entry): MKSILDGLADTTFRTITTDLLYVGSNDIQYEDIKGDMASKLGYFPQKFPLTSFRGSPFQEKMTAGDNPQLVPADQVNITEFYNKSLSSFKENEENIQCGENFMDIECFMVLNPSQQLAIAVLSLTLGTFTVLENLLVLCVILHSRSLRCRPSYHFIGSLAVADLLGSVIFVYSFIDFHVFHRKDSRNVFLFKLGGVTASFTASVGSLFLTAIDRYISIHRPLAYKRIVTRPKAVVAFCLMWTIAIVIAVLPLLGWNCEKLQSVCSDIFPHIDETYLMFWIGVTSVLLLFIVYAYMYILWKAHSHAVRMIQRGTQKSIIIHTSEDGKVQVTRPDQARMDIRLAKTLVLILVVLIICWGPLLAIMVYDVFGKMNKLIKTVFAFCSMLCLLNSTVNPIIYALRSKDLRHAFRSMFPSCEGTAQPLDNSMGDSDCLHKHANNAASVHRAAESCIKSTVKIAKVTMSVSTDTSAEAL

[10] = molecular target: Cysteinyl leukotriene receptor 1 (Homo sapiens) (UniProt Q9Y271); test: CYSLT1_HS Eurofins-Panlabs selectivity data (BI); settings: Compound concentration 10.0 uM
Sequence of Cysteinyl leukotriene receptor 1 (Homo sapiens) (Q9Y271 whole entry): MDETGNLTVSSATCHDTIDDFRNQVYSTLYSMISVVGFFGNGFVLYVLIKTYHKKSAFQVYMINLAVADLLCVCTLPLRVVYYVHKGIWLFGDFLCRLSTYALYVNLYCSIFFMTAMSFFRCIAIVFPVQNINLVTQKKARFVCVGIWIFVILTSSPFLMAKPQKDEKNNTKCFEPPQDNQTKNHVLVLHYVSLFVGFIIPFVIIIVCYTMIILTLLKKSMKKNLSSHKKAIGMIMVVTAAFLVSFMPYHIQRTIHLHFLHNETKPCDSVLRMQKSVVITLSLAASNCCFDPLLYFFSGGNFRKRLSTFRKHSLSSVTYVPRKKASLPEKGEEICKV

[11] = molecular target: D(1A) dopamine receptor (Homo sapiens) (UniProt P21728); test: D1/HU Eurofins-Panlabs selectivity data (BI); settings: Compound concentration 10.0 uM
Sequence of D(1A) dopamine receptor (Homo sapiens) (P21728 whole entry): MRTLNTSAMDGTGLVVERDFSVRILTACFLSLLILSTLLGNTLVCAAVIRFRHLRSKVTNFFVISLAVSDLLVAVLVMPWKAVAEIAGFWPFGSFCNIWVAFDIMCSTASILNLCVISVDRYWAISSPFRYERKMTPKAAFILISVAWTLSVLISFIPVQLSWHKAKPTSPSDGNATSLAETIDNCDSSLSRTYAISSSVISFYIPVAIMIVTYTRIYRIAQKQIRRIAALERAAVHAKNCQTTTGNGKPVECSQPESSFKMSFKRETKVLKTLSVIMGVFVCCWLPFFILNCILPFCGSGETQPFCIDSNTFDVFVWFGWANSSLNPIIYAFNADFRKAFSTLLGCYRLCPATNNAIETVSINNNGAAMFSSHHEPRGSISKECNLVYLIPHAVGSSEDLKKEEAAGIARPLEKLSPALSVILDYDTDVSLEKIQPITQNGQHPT

[12] = molecular target: D(2) dopamine receptor (Homo sapiens) (UniProt P14416); test: D2S/HU Eurofins-Panlabs selectivity data (BI); settings: Compound concentration 10.0 uM
[13] = molecular target: Estrogen receptor (Homo sapiens) (UniProt P03372); test: ERALPHA/H Eurofins-Panlabs selectivity data (BI); settings: Compound concentration 10.0 uM
[14] = molecular target: Endothelin-1 receptor (Homo sapiens) (UniProt P25101); test: ETA/HU Eurofins-Panlabs selectivity data (BI); settings: Compound concentration 10.0 uM
[15] = molecular target: Gamma-aminobutyric acid receptor subunit alpha-1 (Rattus norvegicus) (UniProt P62813); test: GABAACENTR Eurofins-Panlabs selectivity data (BI); settings: Compound concentration 10.0 uM
[16] = molecular target: Glucocorticoid receptor (Homo sapiens) (UniProt P04150); test: GLUCOCORTICO Eurofins-Panlabs selectivity data (BI); settings: Compound concentration 10.0 uM
[17] = molecular target: Histamine H3 receptor (Homo sapiens) (UniProt Q9Y5N1); test: H3/H Eurofins-Panlabs selectivity data (BI); settings: Compound concentration 10.0 uM
[18] = molecular target: ATP-sensitive inward rectifier potassium channel 1 isoform X1 (Mesocricetus auratus) (UniProt A0A1U8CU73); test: K+/KATP/HA Eurofins-Panlabs selectivity data (BI); settings: Compound concentration 10.0 uM
[19] = molecular target: Muscarinic acetylcholine receptor M3 (Homo sapiens) (UniProt P20309); test: M3/HU Eurofins-Panlabs selectivity data (BI); settings: Compound concentration 10.0 uM
Sequence of Muscarinic acetylcholine receptor M3 (Homo sapiens) (P20309 whole entry, looked up): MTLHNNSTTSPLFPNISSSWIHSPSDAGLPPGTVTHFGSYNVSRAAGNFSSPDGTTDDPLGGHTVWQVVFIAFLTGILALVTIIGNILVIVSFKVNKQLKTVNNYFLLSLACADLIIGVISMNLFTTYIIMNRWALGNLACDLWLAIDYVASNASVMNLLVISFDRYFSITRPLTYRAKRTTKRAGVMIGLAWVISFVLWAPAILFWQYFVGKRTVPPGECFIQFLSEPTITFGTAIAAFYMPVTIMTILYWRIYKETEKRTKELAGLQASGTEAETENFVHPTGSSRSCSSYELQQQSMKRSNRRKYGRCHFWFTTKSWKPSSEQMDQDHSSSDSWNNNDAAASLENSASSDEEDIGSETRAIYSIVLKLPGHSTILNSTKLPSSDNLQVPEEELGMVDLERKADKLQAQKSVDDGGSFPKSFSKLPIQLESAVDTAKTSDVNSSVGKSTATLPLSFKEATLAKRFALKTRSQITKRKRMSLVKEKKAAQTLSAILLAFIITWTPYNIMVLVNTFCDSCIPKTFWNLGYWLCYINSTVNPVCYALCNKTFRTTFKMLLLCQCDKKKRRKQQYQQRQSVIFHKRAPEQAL

[20] = molecular target: Melatonin receptor type 1A (Homo sapiens) (UniProt P48039); test: MT1/H Eurofins-Panlabs selectivity data (BI); settings: Compound concentration 10.0 uM
Sequence of Melatonin receptor type 1A (Homo sapiens) (P48039 whole entry): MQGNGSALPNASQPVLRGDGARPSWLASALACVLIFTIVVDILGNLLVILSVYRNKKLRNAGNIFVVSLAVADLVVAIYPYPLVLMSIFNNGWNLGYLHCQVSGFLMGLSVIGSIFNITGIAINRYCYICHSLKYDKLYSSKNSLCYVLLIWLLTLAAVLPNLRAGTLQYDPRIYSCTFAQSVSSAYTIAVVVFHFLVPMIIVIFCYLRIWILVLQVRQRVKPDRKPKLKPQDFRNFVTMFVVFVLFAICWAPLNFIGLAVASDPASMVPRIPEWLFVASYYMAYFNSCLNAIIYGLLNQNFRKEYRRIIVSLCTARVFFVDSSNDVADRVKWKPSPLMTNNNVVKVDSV

[21] = molecular target: Mu-type opioid receptor (Homo sapiens) (UniProt P35372); test: MU/HU Eurofins-Panlabs selectivity data (BI); settings: Compound concentration 10.0 uM
[22] = molecular target: Acetylcholine receptor subunit alpha (Homo sapiens) (UniProt P02708); test: NACH/H Eurofins-Panlabs selectivity data (BI); settings: Compound concentration 10.0 uM
Sequence of Acetylcholine receptor subunit alpha (Homo sapiens) (P02708 whole entry): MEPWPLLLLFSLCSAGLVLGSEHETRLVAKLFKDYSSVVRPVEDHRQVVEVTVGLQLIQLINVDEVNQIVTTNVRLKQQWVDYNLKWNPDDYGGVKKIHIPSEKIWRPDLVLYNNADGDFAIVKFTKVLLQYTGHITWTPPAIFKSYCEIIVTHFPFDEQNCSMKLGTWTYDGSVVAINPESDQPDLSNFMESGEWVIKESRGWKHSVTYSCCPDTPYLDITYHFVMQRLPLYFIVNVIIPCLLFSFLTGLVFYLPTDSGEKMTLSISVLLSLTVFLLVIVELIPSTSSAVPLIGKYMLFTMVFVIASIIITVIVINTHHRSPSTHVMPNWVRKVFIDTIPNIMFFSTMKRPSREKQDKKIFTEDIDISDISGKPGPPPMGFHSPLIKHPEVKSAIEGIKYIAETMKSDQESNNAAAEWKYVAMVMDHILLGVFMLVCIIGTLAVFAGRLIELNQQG

[23] = molecular target: Sodium-dependent noradrenaline transporter (Homo sapiens) (UniProt P23975); test: NETRANS/H Eurofins-Panlabs selectivity data (BI); settings: Compound concentration 10.0 uM
[24] = molecular target: Sigma non-opioid intracellular receptor 1 (Homo sapiens) (UniProt Q99720); test: SIGMA1/HU Eurofins-Panlabs selectivity data (BI); settings: Compound concentration 10.0 uM
Sequence of Sigma non-opioid intracellular receptor 1 (Homo sapiens) (Q99720 whole entry): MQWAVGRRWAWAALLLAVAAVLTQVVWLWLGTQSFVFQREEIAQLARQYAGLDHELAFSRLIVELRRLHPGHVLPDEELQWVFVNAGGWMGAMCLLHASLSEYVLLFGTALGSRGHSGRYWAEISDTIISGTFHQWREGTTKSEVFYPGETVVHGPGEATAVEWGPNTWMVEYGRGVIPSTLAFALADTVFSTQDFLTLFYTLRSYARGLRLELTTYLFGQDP

[25] = molecular target: D(3) dopamine receptor (Homo sapiens) (UniProt P35462); settings: Compound concentration 10.0 uM
Sequence of D(3) dopamine receptor (Homo sapiens) (P35462 whole entry): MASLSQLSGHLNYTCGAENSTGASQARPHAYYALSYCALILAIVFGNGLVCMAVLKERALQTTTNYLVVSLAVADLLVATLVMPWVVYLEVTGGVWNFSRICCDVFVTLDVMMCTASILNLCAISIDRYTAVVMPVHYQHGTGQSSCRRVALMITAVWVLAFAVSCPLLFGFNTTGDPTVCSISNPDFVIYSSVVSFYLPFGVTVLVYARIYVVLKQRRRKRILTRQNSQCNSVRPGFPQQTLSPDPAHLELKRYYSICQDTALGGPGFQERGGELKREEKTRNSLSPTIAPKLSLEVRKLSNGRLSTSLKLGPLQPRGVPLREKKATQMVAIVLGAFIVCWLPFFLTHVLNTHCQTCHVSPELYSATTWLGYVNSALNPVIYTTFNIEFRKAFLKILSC

[26] = molecular target: Muscarinic acetylcholine receptor M3 (Homo sapiens) (UniProt P20309); settings: Compound concentration 10.0 uM
[27] = molecular target: Alpha-1A adrenergic receptor (Rattus norvegicus) (UniProt P43140); test: ALPHA1A/R Eurofins-Panlabs selectivity data (BI); settings: Compound concentration 10.0 uM
[28] = molecular target: Alpha-1B adrenergic receptor (Rattus norvegicus) (UniProt P15823); test: ALPHA1B/R Eurofins-Panlabs selectivity data (BI); settings: Compound concentration 10.0 uM
Sequence of Alpha-1B adrenergic receptor (Rattus norvegicus) (P15823 whole entry, looked up): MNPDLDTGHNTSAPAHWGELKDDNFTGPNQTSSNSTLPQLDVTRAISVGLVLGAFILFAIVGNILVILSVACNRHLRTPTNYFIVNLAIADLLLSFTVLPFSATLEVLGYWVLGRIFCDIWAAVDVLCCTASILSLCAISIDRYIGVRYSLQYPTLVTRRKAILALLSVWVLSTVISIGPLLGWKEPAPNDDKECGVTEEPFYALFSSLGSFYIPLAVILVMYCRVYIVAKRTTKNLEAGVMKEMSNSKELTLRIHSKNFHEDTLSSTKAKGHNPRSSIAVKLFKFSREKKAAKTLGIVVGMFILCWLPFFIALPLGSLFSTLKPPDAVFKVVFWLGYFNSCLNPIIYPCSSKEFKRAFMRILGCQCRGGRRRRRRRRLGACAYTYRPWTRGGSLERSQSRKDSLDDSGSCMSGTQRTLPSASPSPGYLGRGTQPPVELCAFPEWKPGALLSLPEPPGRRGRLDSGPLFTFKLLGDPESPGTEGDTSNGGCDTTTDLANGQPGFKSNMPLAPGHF

Sequence of Mitogen-activated protein kinase kinase kinase 3 (Homo sapiens) (Q99759 whole entry): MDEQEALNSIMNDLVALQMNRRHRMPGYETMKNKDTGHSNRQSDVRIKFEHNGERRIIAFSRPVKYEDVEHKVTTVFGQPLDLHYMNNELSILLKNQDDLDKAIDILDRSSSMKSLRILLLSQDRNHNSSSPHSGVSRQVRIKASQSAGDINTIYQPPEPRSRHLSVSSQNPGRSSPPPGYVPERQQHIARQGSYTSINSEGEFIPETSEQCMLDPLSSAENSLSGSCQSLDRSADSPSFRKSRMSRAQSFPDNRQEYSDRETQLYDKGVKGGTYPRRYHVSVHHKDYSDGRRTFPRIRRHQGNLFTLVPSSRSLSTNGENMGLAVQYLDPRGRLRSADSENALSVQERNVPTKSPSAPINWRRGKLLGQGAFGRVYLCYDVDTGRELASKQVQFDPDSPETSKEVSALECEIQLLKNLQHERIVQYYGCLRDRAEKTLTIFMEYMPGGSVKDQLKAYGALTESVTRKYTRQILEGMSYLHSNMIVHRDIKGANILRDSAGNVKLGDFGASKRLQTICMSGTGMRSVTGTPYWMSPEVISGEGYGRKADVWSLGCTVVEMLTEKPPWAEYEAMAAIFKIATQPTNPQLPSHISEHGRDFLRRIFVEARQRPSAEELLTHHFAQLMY

CS(=O)(=O)NCC[C@H](NC(=O)c1cncc2c1cnn2-c1ccc(F)cc1)c1ccnc(S(C)(=O)=O)c1 [BI 9307]
inactive: residual activity [1] 100% | residual activity [2] 100% | residual activity [3] 100% | inhibition [4] -4.31%

CS(=O)(=O)c1cc(C2(NC(=O)c3cncc4c3cnn4-c3ccc(F)cc3)CC2)ccn1 [BI 639667]
inactive: residual activity [5] 89% | residual activity [6] 124% | residual activity [7] 95% | residual activity [8] 90% | residual activity [9] 72% | residual activity [10] 87% | residual activity [11] 100% | residual activity [12] 93% | residual activity [13] 100% | residual activity [14] 97% | residual activity [15] 104% | residual activity [16] 96% | residual activity [17] 87% | residual activity [18] 100% | residual activity [19] 94% | residual activity [20] 79% | residual activity [21] 86% | residual activity [22] 91% | residual activity [23] 82% | residual activity [24] 105% | inhibition [25] 17.6% | inhibition [26] 22% | residual activity [27] 88% | residual activity [28] 93%
